System: HUVEC/MSC spheroids viability
Experiment: Human HUVEC/MSC cell line growth inhibition [KRAS2];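 on viability, T/C: percent of DMSO vehicle control luminescence so 100% = untreated viability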
Details: for IC50: curve of first compound; for viability, T/C: stronger effect = lower value
Source text: Multicellular complex tumor spheroid response to RAS pathway inhibitors in combination with a targeted agents in patient-derived cell lines with oncogenic KRAS variants from multiple cancer types
A high-throughput screen of multi-cell type tumor spheroids was designed to identify active combinations of targeted small molecules and KRAS pathway inhibitors. Complex spheroids include a stromal component modeled by human endothelial cells (HUVEC) and fibroblasts modeled by human mesenchymal stem cells (MSCs). The concentration ranges selected for each drug and investigational agent were based upon clinically achievable concentrations if the clinical Cmax of the agent was known. * [This particular assayID is a followup dataset requested by reviewers of the manuscript. It is a test of the HUVEC and MSC without the tumor cells, and was conducted using different drug plates and a different plate layout.]
Compounds. The drugs and investigational agents: BI-3406 (NSC825286), BAY-293 (NSC824723), batoprotafib (TNO155; NSC825523), sotorasib (AMG 510; NSC818433), MRTX1257 (NSC819558), elimusertib (BAY 1895344; NSC800525), molibresib (GSK525762; NSC774829), temuterkib (LY3214996; NSC803410), venetoclax (NSC766270), alisertib (NSC759677), olaparib (NSC753686), talazoparib (NSC767125), erdafitinib (NSC781556), ipatasertib (NSC767898), cabozantinib (NSC761068), nintedanib (NSC756659), abemaciclib (NSC768073), docetaxel (NSC628503), trametinib (NSC758246), and sapanisertib (NSC764658) were obtained from the National Cancer Institute (NCI) Developmental Therapeutics Program Chemical Repository. The FDA-approved anticancer drug set is available from the Developmental Therapeutics Program. […] The stock solutions were prepared in dimethyl sulfoxide (DMSO, Sigma-Aldrich, St. Louis, MO, cat. D2650) at 800-fold the tested concentration and stored at -70 degrees C prior to their use. All drugs and investigational agents were tested over a range starting from a high concentration at or near the clinical Cmax and decreasing in half-log increments. If the clinical Cmax for an agent had not been determined, the highest concentration tested was 10 microM.
Cell Culture. All cells were maintained in an incubator at 37 degrees C and 5% CO2 with 95% humidity. The PDC lines were cultured according to standard operating procedures established by the NCI PDMR (https://pdmr.cancer.gov/sops/default.htm). Briefly, all PDCs were thawed and cultured in Matrigel-coated flasks prepared with a working solution of 1X Ham's F-12 nutrient mix, without supplementation (Invitrogen, Waltham, MA, cat. 11765054), 100 U/mL penicillin-streptomycin (Invitrogen, cat. 15140122), and 2.5% Matrigel (Corning Inc., Corning, NY, cat. 354248) for the first three passages. All PDCs were cultured in complete DMEM/F-12 media containing advanced DMEM/F-12 (Invitrogen, cat. 12634028), 4.9% defined fetal bovine serum, heat inactivated (HyClone Laboratories Inc., Logan, UT, cat. SH30070.03HI), 389 ng/mL hydrocortisone (Sigma-Aldrich, cat. H4001), 9.7 ng/mL human EGF recombinant protein (Invitrogen, cat. PHG0313), 23.4 microg/mL adenine (Sigma-Aldrich, cat. A2786), 97.3 U/mL penicillin-streptomycin (Invitrogen, cat. 15140122), 1.9 mM L-glutamine (Invitrogen, cat. 25030081), and 9.7 microM Y-27632 dihydrochloride (Tocris Bioscience, Bristol, United Kingdom, cat. 1254). The PDCs were cultured in complete DMEM/F12 media without 9.7 microM Y-27632 dihydrochloride for at least two passages prior to the screen. The established cell line HOP-62 was cultured in RPMI 1640 medium, HEPES (Invitrogen, cat. 22400105) with 10% defined fetal bovine serum (HyClone Laboratories Inc., cat. SH30070.03) and 2 mM L-glutamine (Invitrogen, cat. 25030081). The pooled donor HUVEC were cultured in endothelial cell growth medium 2 (PromoCell, Heidelberg, Germany, cat. C-22011) and the hMSC were cultured in mesenchymal stem cell growth medium 2 (PromoCell, cat. C-28009). […]

Structure (SMILES): CCNC(=O)CC1N=C(c2ccc(Cl)cc2)c2cc(OC)ccc2-n2c(C)nnc21 (configuration not stated) + C=CC(=O)N1CCN(c2nc(=O)n(-c3c(C)ccnc3C(C)C)c3nc(-c4c(O)cccc4F)c(F)cc23)C(C)C1
- IC50 (second compound 0.0316 µM): > 10 µM
- IC50 (second compound 0.1 µM): > 10 µM
- IC50 (second compound 0.316 µM): > 10 µM
- IC50 (second compound 1 µM): > 10 µM
- IC50 (second compound 3.16 µM): > 10 µM
- IC50 (second compound 10 µM): > 10 µM
- viability, T/C (second compound 0.0316 µM, first compound 0.0316 µM): 94.8%
- viability, T/C (second compound 0.0316 µM, first compound 0.1 µM): 96.7%
- viability, T/C (second compound 0.0316 µM, first compound 0.316 µM): 129%
- viability, T/C (second compound 0.0316 µM, first compound 1 µM): 140%
- viability, T/C (second compound 0.0316 µM, first compound 3.16 µM): 120%
- viability, T/C (second compound 0.0316 µM, first compound 10 µM): 121%
- viability, T/C (second compound 0.1 µM, first compound 0.0316 µM): 104%
- viability, T/C (second compound 0.1 µM, first compound 0.1 µM): 86.3%
- viability, T/C (second compound 0.1 µM, first compound 0.316 µM): 110%
- viability, T/C (second compound 0.1 µM, first compound 1 µM): 138%
- viability, T/C (second compound 0.1 µM, first compound 3.16 µM): 162%
- viability, T/C (second compound 0.1 µM, first compound 10 µM): 151%
- viability, T/C (second compound 0.316 µM, first compound 0.0316 µM): 111%
- viability, T/C (second compound 0.316 µM, first compound 0.1 µM): 109%
- viability, T/C (second compound 0.316 µM, first compound 0.316 µM): 116%
- viability, T/C (second compound 0.316 µM, first compound 1 µM): 143%
- viability, T/C (second compound 0.316 µM, first compound 3.16 µM): 131%
- viability, T/C (second compound 0.316 µM, first compound 10 µM): 187%
- viability, T/C (second compound 1 µM, first compound 0.0316 µM): 114%
- viability, T/C (second compound 1 µM, first compound 0.1 µM): 105%
- viability, T/C (second compound 1 µM, first compound 0.316 µM): 140%
- viability, T/C (second compound 1 µM, first compound 1 µM): 163%
- viability, T/C (second compound 1 µM, first compound 3.16 µM): 179%
- viability, T/C (second compound 1 µM, first compound 10 µM): 174%
- viability, T/C (second compound 3.16 µM, first compound 0.0316 µM): 116%
- viability, T/C (second compound 3.16 µM, first compound 0.1 µM): 146%
- viability, T/C (second compound 3.16 µM, first compound 0.316 µM): 150%
- viability, T/C (second compound 3.16 µM, first compound 1 µM): 208%
- viability, T/C (second compound 3.16 µM, first compound 3.16 µM): 206%
- viability, T/C (second compound 3.16 µM, first compound 10 µM): 207%
- viability, T/C (second compound 10 µM, first compound 0.0316 µM): 125%
- viability, T/C (second compound 10 µM, first compound 0.1 µM): 127%
- viability, T/C (second compound 10 µM, first compound 0.316 µM): 176%
- viability, T/C (second compound 10 µM, first compound 1 µM): 189%
- viability, T/C (second compound 10 µM, first compound 3.16 µM): 179%
- viability, T/C (second compound 10 µM, first compound 10 µM): 197%

Reference: PubChem BioAssay AID2060912 (Molecular Pharmacology Branch, DTP, NCI, 2025)
